# From US20040028623A1, “Formulations for the removal of dental plaque, tartar and dental stains” (priority 2000, published 2004)
# Where two headings read alike, the source gives them in different places.
# What was measured:
# [1] = Method: (§1) In another clinical test five volunteers were chose, all male and smokers, characterized by a strong formation of dental calculus (tartar), especially in the zone of the lingual face of the lower incisors. Each volunteer underwent an application of 200 mg of pure glutathione in powder on the lingual face of the lower incisors by means of a single-tuft toothbrush with medium bristles, followed-by a tooth brushing for ten minutes with the same toothbrush. After a rinse with water the operation was repeated, always for ten minutes using a further 200 mg of glutathione.
# [2] = remark: listed apart in the source
# Method: as §1, with “especially IN” for “especially in”, “of 500” for “of 200”, “bristles, followed by” for “bristles, followed-by”, “further 500” for “further 200”
# [3] = aqueous solution of 2%, 30° C, without light, tooth rinsed and lightly brushed and solution changed every two days
# Method: The in vitro evaluation of anti-tartar activity was carried out on an extracted tooth. The amount of tartar on said tooth was quantified before the test. The tooth was then immersed. Into an aqueous solution of 2% glutathlone and kept in a closed vessel without light at 30° C. Every two days said tooth was rinsed and lightly brushed and the solution was changed.
compound,measurement,setting,value
N[C@@H](CCC(=O)N[C@@H](CS)C(=O)NCC(=O)O)C(=O)O [glutathione],reduction of dental calculus (tartar),"[1]; all five volunteers, zones where brushing had been carried out, 2 x 200 mg powder, 2 x ten minutes brushing",consistent reduction
same,residual dental calculus (tartar),"[1]; sub-gingival and interstitial zones where brushing had not been properly carried out, 2 x 200 mg",presence of residual dental calculus (tartar)
same,removal of dental calculus (tartar),"[2]; all five volunteers, zones where brushing had been carried out, 2 x 500 mg powder, 2 x ten minutes brushing",complete removal
same,residual dental calculus (tartar),"[2]; sub-gingival and interstitial zones where brushing had not been properly carried out, 2 x 500 mg",presence of residual dental calculus (tartar)
same,time until removal of tartar was completed,[3],two to three weeks
same,time until removal of tartar was evident,[3],after only four days
